The source of these data is patent US8404825B2, “Method for producing monoterpene and monoterpinoid compounds and use thereof” (Board of Regents of the Nevada System of Higher Education, …, priority 2008, dated 2013).

For one test, the system named is recombinant Ipi12D04. Put plainly: Functional assay of recombinant Ipi12D04 (pyridine nucleotide assay at 340 nm, GC-MS of products). The conditions noted are these: for reaction product of reduction by Ipi12D04 enzyme (stereoisomer by chiral GC): in the presence of NADPH, chiral column, compared with racemic standard. The test is classed as biochemical, Ips pini. How it is done: Enzyme activity is determined by a pyridine nucleotide (PN) binding assay that monitors production or consumption of NADH/NADPH by measuring the absorbance of the catalysts reaction at 340 nm using a spectrophotometer. The reactions include reaction buffer (0.1 M NaP pH 7.8 and 1.1 mM EDTA), enzyme, PN, and substrate (monoterpene) in a 1 ml total volume and the absorbance was measured over time at room temperature. The volatiles produced from the reactions were extracted three times with pentane:ether (1:1) spiked with 200 n g/ml n-octanol (internal standard) and concentrated to approximately 100 ul with nitrogen gas. The samples were directly analyzed by coupled GC-MS at the Nevada Proteomics Center at UNR.
Enzyme activity was determined by a pyridine nucleotide (PN) binding assay that monitored production or consumption of NADH/NADPH spectrophotometrically. The reaction mixture included reaction buffer (0.1 M NaP pH 7.8 and 1.1 mM EDTA), enzyme, PN, and substrate (monoterpene) in a 1 ml total volume. The absorbance was measured over time at room temperature. The reactions were extracted three times with pentane:ether (1:1) spiked with 200 ng/ml n-octanol (internal standard) to extract monoterpenoids and concentrated to approximately 100 ul with nitrogen gas. The samples were directly analyzed by coupled GC-MS at the Nevada Proteomics Center at UNR.
Biochemical reactions catalyzed by recombinant Ipi12D04, as determined by functional assays, are summarized below. In general, the enzyme functions as an oxidoreductase, using NAD(P) or NAD(P)H as cofactors, depending on whether it is oxidizing or reducing a substrate. […] Negative controls for all reactions included media from un-infected cells.

The test system of test [1] is western populations of Ips pini. The following applies: cited from earlier work.
The next test concerns I. calligraphus. The conditions noted are these: southeast U.S.; cited from earlier work.
Another test concerns Ips. typographus. The following applies: cited from earlier work.

With `C=CC(=C)CC(O)C=C(C)C` (racemic) [racemic ipsdienol, ipsdienol], in the test on recombinant Ipi12D04 (with NADP, GC and mass spectrum compared with ipsdienone standard), the “reaction product of oxidation by Ipi12D04 enzyme” value was “converts racemic ipsdienol to ipsdienone”. Further, in test [1], the “attractiveness as aggregation pheromone” value was “not attractive at all”. For the compound `C=CC(=C)CC(O)C=C(C)C` (single isomer, unassigned; (+)) [(+)-ipsdienol], the “behavioural response (attraction / dispersal)” value in the test with I. calligraphus is on record as “dispersed”. For `C=CC(=C)CC(O)C=C(C)C` (single isomer, unassigned; (-)) [(−)-ipsdienol, 2-methyl-6-methylene-2,7-octadien-4-ol], the “behavioural response (attraction / dispersal)” value in the test on I. calligraphus is “attracted”. Regarding `C=CC(=C)C[C@@H](O)CC(C)C` [(+)-ipsenol], the “expected conversion by Ipi12D04 enzyme” value in the test on recombinant Ipi12D04 (enzyme incubated with both NAD(P) and NAD(P)H) is “readily converted to (−)-ipsenol”. In the case of `C=CC(=C)CC(=O)C=C(C)C` [ipsdienone], the “reaction product of reduction by Ipi12D04 enzyme (stereoisomer by chiral GC)” value in the test on recombinant Ipi12D04 is listed as “reaction product was pure (−)-ipsdienol”. Turning to `C=CC(=C)C[C@@H](O)CC(C)C` [ipsenol], the behavioural response entry with Ips. typographus was “anti-aggregation pheromone”. On to `C=CC(=C)CC(=O)CC(C)C` [ipsenone], for which the “reaction product of reduction by Ipi12D04 enzyme (stereoisomer by chiral GC)” value with recombinant Ipi12D04 is given as “reaction product was pure (−)-ipsdienol”.
